Results published in publication PMC9738727, “Purification and Characterization of Novel Anti-MRSA Peptides Produced by Brevibacillus sp. SPR-20” (Molecules, 2022).
Values after ≈ are worked out from the molar mass of the structure shown. Values joined by “and” are separate entries in the source; they are usually repeats but may differ in a detail not shown here. Equal entries are not always repeated. Where two headings read alike, the source gives them in different places. Ends that are not written are not given here.

Key:
[1] = test system: MRSA isolate 142; test: microbe, parasite or virus in culture; format: cell-based, Staphylococcus aureus
Experimental: (§1) The MIC and MBC of the purified peptides from SPR-20 were determined by broth microdilution assay following a standard guideline. S. aureus TISTR 517 and MRSA isolate 142, 1096, and 2468 as bacterial strains were cultured in MH agar at 37 °C for 18 h. […] The cells were then diluted to 5 × 10^6 CFU/mL using cation-adjusted Mueller Hinton broth (CAMHB). The diluted cell suspension (10 μL) was transferred to each well of a 96-well plate. The purified peptide in the total volume of 100 µL was added to each well to obtain the final concentrations between 0.5 and 64 µg/mL. The standard antibiotics (vancomycin and cefoxitin) (Sigma-Aldrich Co., St. Louis, MO, USA) and antibiotic-free samples were the positive and negative controls, respectively. CAMHB without tested bacteria was used as a blank. The 96-well plates were incubated at 37 °C for 24 h, and the experiment was performed in triplicate for each strain. […] Subsequently, 100 µL of each dilution was spread on MH agar and then incubated at 37 °C for 24 h.

[2] = test system: MRSA isolate 2468; test: microbe, parasite or virus in culture; format: cell-based, Staphylococcus aureus
Experimental: as §1

[3] = test system: S. aureus TISTR 517 and MRSA strains; test: microbe, parasite or virus in culture; format: cell-based, Staphylococcus aureus; conditions: Staphylococcus aureus
Experimental: as §1

[4] = test system: S. aureus TISTR 517; test: microbe, parasite or virus in culture; format: cell-based, Staphylococcus aureus
Experimental: as §1

[5] = test system: MRSA isolate 1096; test: microbe, parasite or virus in culture; format: cell-based, Staphylococcus aureus
Experimental: as §1

[6] = test system: MRSA isolate 2468; test: microbe, parasite or virus in culture; format: cell-based, Staphylococcus aureus; conditions: Staphylococcus aureus, 18 h, read-out: Corrected Zone of Inhibition
Experimental: (§2) The antimicrobial activity was measured by an agar well diffusion test with some modified methods. In brief, single colonies of the tested strains were suspended in 0.85% NaCl, and then the OD at 625 nm was adjusted to 0.1. The cell suspensions were spread on MH agar, and the tested samples (100 μL) were introduced into each well before incubation at 37 °C for 24 h. Each experiment was performed in three independent replicates, and the inhibition zone was measured and expressed as mean ± SD.
(§3) The agar well diffusion test was performed in triplicate for potency determination, using S. aureus TISTR 517 and MRSA isolate 2468 as the tested bacteria. […] The remaining standard and sample solutions were transferred to the other 3 wells. The plates were incubated at 37 °C for 18 h.

[7] = test system: S. aureus TISTR 517; test: microbe, parasite or virus in culture; format: cell-based, Staphylococcus aureus; conditions: Staphylococcus aureus, TISTR517, 18 h, read-out: Corrected Zone of Inhibition
Experimental: as §2, §3

[8] = cited from earlier work
Experimental: With the highest activity, P1 was selected for further study on its stability and mechanism of action. P1 was thermostable as it maintained nearly all activity after exposure to 100 °C or autoclave conditions. The short-chain peptide with substantial β-strand and disordered structures was an important characteristic of P1. This peptide might be refolded to active conformation after heat treatment that conferred good thermal stability. Similarly, acidocin LCHV (11 residues) produced by Lactobacillus acidophilus n.v. Er 317/402 Narine was stable at 130 °C for 90 min [27]. […] The enzymatic stability of P1 was caused by the absence of aromatic amino acids, which are the specific cleavage sites of proteinase K and α-chymotrypsin. The presence of one lysine at the core sequence of P1 might lessen the sensitivity of trypsin [29].

[9] = Staphylococcus aureus, broth microdilution, CAMHB, 37 °C, 24 h, triplicate, read-out: MIC
[10] = Staphylococcus aureus, TISTR517, 24 h

Compound | MBC ([1]; isolate 142, 24 h) [µg/mL] | MIC ([1]; isolate 142, 24 h) [µg/mL] | MBC ([2]; isolate 2468, 24 h) [µg/mL] | MIC ([2]; isolate 2468, 24 h) [µg/mL] | MBC ([4]; TISTR 517, 24 h) [µg/mL] | MIC ([4]; TISTR 517, 24 h) [µg/mL] | MBC ([5]; isolate 1096, 24 h) [µg/mL] | MIC ([5]; isolate 1096, 24 h) [µg/mL] | also measured
CO[C@@]1(NC(=O)Cc2cccs2)C(=O)N2C(C(=O)O)=C(COC(N)=O)CS[C@@H]21 [Cefoxitin, cefoxitin, reference compound] | – | – | – | – | – | – | – | – | MIC [1, 9]: > 64 µg/mL; MIC [2, 9]: > 64 µg/mL; MIC ([3]; MRSA strains only, read-out: MIC): > 64 µg/mL; MIC ([4]; Staphylococcus aureus, TISTR517, broth microdilution, CAMHB, 37 °C, 24 h, triplicate, read-out: MIC): 2 µg/mL (≈ 4.68 µM); MBC ([4]; Staphylococcus aureus, TISTR517, dilutions spread on MH agar, 37 °C, 24 h, no colony, read-out: MBC): 2 µg/mL (≈ 4.68 µM); MIC ([4]; broth microdilution, CAMHB, 37 °C, 24 h, triplicate): 2 µg/mL (≈ 4.68 µM); MIC [5, 9]: > 64 µg/mL
CN[C@H](CC(C)C)C(=O)N[C@H]1C(=O)N[C@@H](CC(N)=O)C(=O)N[C@H]2C(=O)N[C@H]3C(=O)N[C@H](C(=O)N[C@H](C(=O)O)c4cc(O)cc(O)c4-c4cc3ccc4O)[C@H](O)c3ccc(c(Cl)c3)Oc3cc2cc(c3O[C@@H]2O[C@H](CO)[C@@H](O)[C@H](O)[C@H]2O[C@H]2C[C@](C)(N)[C@H](O)[C@H](C)O2)Oc2ccc(cc2Cl)[C@H]1O [Vancomycin, vancomycin] | – | – | – | – | – | – | – | – | MBC ([1]; Staphylococcus aureus, 24 h): 2 µg/mL (≈ 1.38 µM); MIC ([1]; Staphylococcus aureus, 24 h): 2 µg/mL (≈ 1.38 µM); MBC ([2]; Staphylococcus aureus, 24 h): 2 µg/mL (≈ 1.38 µM); MIC ([2]; Staphylococcus aureus, 24 h): 2 µg/mL (≈ 1.38 µM); MIC [3]: 2 µg/mL and 1.38 µM; MBC [4, 10]: 2 µg/mL (≈ 1.38 µM); MIC [4, 10]: 2 µg/mL (≈ 1.38 µM); MBC ([5]; Staphylococcus aureus, 24 h): 2 µg/mL (≈ 1.38 µM); MIC ([5]; Staphylococcus aureus, 24 h): 2 µg/mL (≈ 1.38 µM); zone of inhibition at 50 µg/mL [6]: 20.1 ± 0.29 mm; zone of inhibition at 75 µg/mL [6]: 21.2 ± 0.76 mm; zone of inhibition at 100 µg/mL [6]: 22 ± 0.57 mm; zone of inhibition at 125 µg/mL [6]: 22.7 ± 0.61 mm; zone of inhibition at 150 µg/mL [6]: 23.36 ± 0.21 mm; zone of inhibition at 50 µg/mL [7]: 18.8 ± 0.61 mm; zone of inhibition at 75 µg/mL [7]: 19.5 ± 0.52 mm; zone of inhibition at 100 µg/mL [7]: 20.3 ± 0.41 mm; zone of inhibition at 125 µg/mL [7]: 21.1 ± 0.41 mm; zone of inhibition at 150 µg/mL [7]: 21.3 ± 0.36 mm
NVGVLNPPPLV [Acidocin LCHV, antimicrobial peptide produced by Lactobacillus acidophilus n.v; Er 317/402 Narine] | – | – | – | – | – | – | – | – | thermal stability ([8]; 130 °C for 90 min): stable; effect of trypsin, pepsin, and proteinase K on activity ([8]; according to a previous study): decreased the activity
VVLNLLVKVLKYGK [Peptide P3] | 8 | 4 | 8 | 4 | 4 | 4 | 8 | 4 | –
VVLNLVVKLLKYAK [Peptide P5] | 32 | 32 | 32 | 32 | 32 | 32 | 32 | 32 | –
VVMNLLVKVLKYVV [Peptide P2] | 64 | 8 | 64 | 8 | 16 | 8 | 64 | 8 | –
VVVNLLVKVLKYAK [Peptide P4] | 16 | 8 | 16 | 8 | 8 | 8 | 16 | 8 | –
XVXVVVKVLKYLX [Brevilaterin V, antimicrobial peptide from Brevibacillus laterosporus S62-9] | – | – | – | – | – | – | – | – | initial activity retained after heating ([8]; 100 °C for 2 h): 99%; remaining activity with pepsin, trypsin, and proteinase K [8]: more than 97%
